Data on eleven compounds can be found in ChEMBL document CHEMBL3044857, “Benzimidazole: a medicinally important heterocyclic moiety” (Med Chem Res, 2012).

Each structure is given as a SMILES string. ≈ marks a conversion by molar mass, not a printed value.

For test [1], the system named is Aorta. Description: Vasorelaxant activity in Rattus norvegicus (rat) aortic rings. The format is functional, tissue-based.
Test [2] deals with Aorta. Description: Vasorelaxant activity in endothelium-denuded Rattus norvegicus (rat) aortic rings. The format is functional, tissue-based.
The subject of test [3] is HT-29. Description: Cytotoxicity against Homo sapiens (human) HT-29 cells by Alamar blue assay. It counts as functional, cell-based.
Test [4] deals with PC-3. Kind of test: Cytotoxicity against Homo sapiens (human) PC3 cells by Alamar blue assay. It counts as functional, cell-based. On the technique in general: Resazurin is reduced to fluorescent resorufin, in cell work by metabolically active cells.
The subject of test [5] is MCF7. Kind of test: Cytotoxicity against Homo sapiens (human) MCF7 cells by Alamar blue assay. The format is functional, cell-based.
The test system of test [6] is HL-60. Description: Cytotoxicity against Homo sapiens (human) HL60 cells by Alamar blue assay. It counts as functional, cell-based.
In test [7] the test system is Candida. Description: Antimicrobial activity against Candida. It counts as functional.
The subject of test [8] is Giardia intestinalis. Description: Antimicrobial activity against Giardia intestinalis. The following applies: Giardia duodenalis. The format is functional, organism-based.
Test [9] has as its system Trichomonas vaginalis. Kind of test: Antimicrobial activity against Trichomonas vaginalis. It counts as functional, organism-based.
Test [10] deals with Plasmodium falciparum. Description: Antimicrobial activity against Plasmodium falciparum. It counts as functional, organism-based.
Test [11] deals with T1, Progesterone receptor (Homo sapiens, UniProt P06401).
T1 sequence (P06401 whole entry): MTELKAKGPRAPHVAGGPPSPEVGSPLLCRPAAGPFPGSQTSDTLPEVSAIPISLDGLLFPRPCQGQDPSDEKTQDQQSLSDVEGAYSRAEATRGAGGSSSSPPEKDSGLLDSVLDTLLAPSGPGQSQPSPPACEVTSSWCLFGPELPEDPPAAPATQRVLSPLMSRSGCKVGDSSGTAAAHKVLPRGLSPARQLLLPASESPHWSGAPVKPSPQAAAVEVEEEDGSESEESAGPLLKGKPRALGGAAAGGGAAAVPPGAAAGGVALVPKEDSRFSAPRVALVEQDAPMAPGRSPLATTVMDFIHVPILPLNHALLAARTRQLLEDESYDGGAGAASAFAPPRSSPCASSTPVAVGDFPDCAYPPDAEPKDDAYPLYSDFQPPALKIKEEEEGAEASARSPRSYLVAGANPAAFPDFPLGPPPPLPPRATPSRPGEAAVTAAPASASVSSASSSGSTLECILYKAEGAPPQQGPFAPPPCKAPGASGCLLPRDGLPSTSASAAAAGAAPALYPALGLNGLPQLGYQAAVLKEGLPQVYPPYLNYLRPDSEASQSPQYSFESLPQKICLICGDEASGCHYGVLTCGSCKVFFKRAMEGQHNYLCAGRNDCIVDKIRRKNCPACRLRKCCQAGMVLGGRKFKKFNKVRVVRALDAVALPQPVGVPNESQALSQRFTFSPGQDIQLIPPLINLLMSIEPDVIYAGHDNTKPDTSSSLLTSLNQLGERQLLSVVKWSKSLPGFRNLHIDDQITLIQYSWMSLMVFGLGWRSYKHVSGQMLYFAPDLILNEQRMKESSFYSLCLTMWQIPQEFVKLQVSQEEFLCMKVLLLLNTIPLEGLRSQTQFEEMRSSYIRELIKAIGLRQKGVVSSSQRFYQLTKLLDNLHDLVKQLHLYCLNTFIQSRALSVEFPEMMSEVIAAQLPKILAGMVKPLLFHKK
Description: Binding affinity to Homo sapiens (human) progesterone receptor.

The target of test [12] is Casein kinase 2 (Rattus norvegicus, UniProt P19139). Description: Inhibition of Rattus norvegicus (rat) liver cytosolic CK2.
Test [13] is described as follows: Inhibition of GABA-A receptor benzodiazepine site (unknown origin). Set-up: species or system Homo sapiens.
Test [14] deals with Respiratory syncytial virus. Kind of test: Antiviral activity against Respiratory syncytial virus infected cell system assessed as inhibition of viral replication. The format is functional, organism-based. The following applies: human respiratory syncytial virus.
Test [15] deals with Respiratory syncytial virus. Kind of test: Ratio of ribavirin EC50 to compound EC50 for Respiratory syncytial virus infected cell system assessed as inhibition of viral replication. The format is functional.

Casein kinase 2, sequence (P67874 whole entry): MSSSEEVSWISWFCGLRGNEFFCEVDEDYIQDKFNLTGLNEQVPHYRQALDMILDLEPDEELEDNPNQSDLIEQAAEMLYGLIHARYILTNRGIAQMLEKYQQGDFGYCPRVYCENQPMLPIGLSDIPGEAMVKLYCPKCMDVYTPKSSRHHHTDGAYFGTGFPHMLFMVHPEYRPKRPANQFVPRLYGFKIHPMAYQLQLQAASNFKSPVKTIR
Casein kinase 2, sequence (P19139 whole entry): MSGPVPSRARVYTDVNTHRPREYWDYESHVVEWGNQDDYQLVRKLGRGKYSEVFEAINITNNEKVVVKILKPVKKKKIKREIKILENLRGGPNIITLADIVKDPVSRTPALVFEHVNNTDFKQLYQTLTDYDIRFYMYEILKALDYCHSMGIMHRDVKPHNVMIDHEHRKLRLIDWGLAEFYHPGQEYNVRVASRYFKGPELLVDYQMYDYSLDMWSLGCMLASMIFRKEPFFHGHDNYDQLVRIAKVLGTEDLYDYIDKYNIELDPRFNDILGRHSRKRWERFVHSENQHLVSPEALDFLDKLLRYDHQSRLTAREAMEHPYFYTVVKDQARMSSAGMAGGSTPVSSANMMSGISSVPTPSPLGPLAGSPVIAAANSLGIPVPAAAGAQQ

Turning to `COc1ccc(-c2nc3cc([N+](=O)[O-])ccc3[nH]2)cc1`, the IC50 was determined as 1410 nM in test [1] and 3610 nM in test [2].

As to `O=[N+]([O-])c1ccc2nc(-c3ccccc3O)[nH]c2c1`, the IC50 in test [1] stood at 950 nM; in test [2], 2010 nM.

As for `O=C(O)c1cccc2[nH]c(-c3cccc4oc(-c5ccccc5O)nc34)nc12`, the IC50 in test [3], in test [4], in [5] and in test [6] was 7000 nM each time.

Regarding `CCCCn1c(-c2ccc(F)cc2)nc2cc(C#N)ccc21`, in test [7], the MIC came out at 3130 ng/mL (≈ 10.7 µM).

For `Sc1nc2c(Br)cc(Br)cc2[nH]1`, the IC50 in [8] was 6 ng/mL (≈ 0.0195 µM); in test [9], 1.5 ng/mL (≈ 0.00487 µM).

Turning to `N=C(N)c1ccc(-c2ccc(O)c(-c3nc4ccc(C(=N)N)cc4[nH]3)c2)cc1`, the IC50 in test [10] was determined as 2.1 nM.

With `Sc1nc2ccc(-n3ccnc3)cc2n1C1CCCC1`, the Ki in test [11] was found to be 28 nM.

For the compound `FC(F)(F)c1nc2c(Br)c(Br)c(Br)c(Br)c2[nH]1`, in [12], the affinity, expressed as Ki, was 600 nM.

For `CCOCN1C2=C(C(=O)Nc3ccccc3F)C(=O)CCN2c2ccc(F)cc21`, 0.1 nM corresponded to half-maximal inhibition in [13] (IC50).

As for `Cc1ccc(O)c(Cn2c(NC3CCN(CCN)CC3)nc3c(C)cccc32)n1` [JNJ 2408068], the EC50 in test [14] was found to be 0.16 nM. The “Ratio EC50” value in test [15] was determined as 100000.

As for `NC(=O)c1ncn([C@@H]2O[C@H](CO)[C@@H](O)[C@H]2O)n1` [RIBAVIRIN], in test [14], the EC50 turned out to be 15000 nM.

As usually defined, the IC50 is the concentration needed to halve the response being measured. Low readings indicate higher potency, high ones lower potency. The MIC is the smallest concentration in the dilution series that meets the test's criterion for growth inhibition. High values mean weaker potency, low ones greater potency. What is called Ki is the equilibrium dissociation constant of an inhibitor or competing ligand from its target. As a reminder, the EC50 is the concentration giving half of the maximal effect.
